Key:
[1] = system: α-2B heterozygous (−/+) and homozygous (−/−) knockout mice; assay: Sulprostone sensitized pain (allodynia), α-2B knockout mice; type: in vivo, mouse; details: intraperitoneal; heterozygous and homozygous α-2B knockout; clonidine 500 ug/kg, Compound 3 100 ug/kg
[2] = biological target: T1, bovine α-1A (Bos taurus, UniProt P18130); assay: RSAT assay, α-1A receptor; type: cell-based; details: NA = not active (EC50 ≧ 10,000)
T1 construct: expressed in transfected cells; host or cells: NIH-3T3
T1 sequence (P18130 1-466): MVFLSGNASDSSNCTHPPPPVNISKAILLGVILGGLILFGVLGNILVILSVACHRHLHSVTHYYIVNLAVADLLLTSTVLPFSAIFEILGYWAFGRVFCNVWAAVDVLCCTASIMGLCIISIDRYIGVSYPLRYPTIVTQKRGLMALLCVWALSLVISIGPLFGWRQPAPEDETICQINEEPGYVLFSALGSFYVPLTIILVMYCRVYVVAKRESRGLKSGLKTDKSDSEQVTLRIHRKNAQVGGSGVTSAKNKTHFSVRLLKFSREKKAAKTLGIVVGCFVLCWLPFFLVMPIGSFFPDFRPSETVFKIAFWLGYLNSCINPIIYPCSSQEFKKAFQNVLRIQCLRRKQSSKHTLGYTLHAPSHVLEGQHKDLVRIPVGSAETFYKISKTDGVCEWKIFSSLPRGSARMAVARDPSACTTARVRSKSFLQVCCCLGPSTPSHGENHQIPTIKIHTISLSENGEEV
Excerpt: Agonist and antagonist activity, including selectivity and specificity, can be characterized using any of a variety of routine assays, including, without limitation, Receptor Selection and Amplification Technology (RSAT) assays (Messier et al., Pharmacol. Toxicol. 76:308-11 (1995); Conklin et al., Nature 363:274-6 (1993)); cyclic AMP assays (Shimizu et al., J. Neurochem. 16:1609-1619 (1969)); and cytosensor microphysiometry assays (Neve et al., J. Biol. Chem. 267:25748-25753 (1992)). Such assays generally are performed using cells that naturally express only a single α-adrenergic receptor subtype, or using transfected cells expressing a single recombinant α-adrenergic receptor subtype. […]
The RSAT assay measures receptor-mediated loss of contact inhibition resulting in selective proliferation of receptor-containing cells in a mixed population of confluent cells. The increase in cell number is assessed with an appropriate detectable marker gene such as β-galactosidase, if desired, in a high throughput or ultra high throughput assay format. […]
As an example, an RSAT assay can be performed essentially as follows. […] After washing with phosphate-buffered saline, β-galactosidase activity is determined by adding 200 μl of chromogenic substrate (3.5 mM O-nitrophenyl-β-D-galactopyranoside/0.5% NP-40 in phosphate buffered saline), incubating overnight at 30°, and measuring optical density at 420 nm. […]

[3] = system: Chung model rats; assay: Chung rat nerve ligation model, tactile allodynia reversal (Von Frey); type: in vivo; details: for allodynia reversal, single oral dose: Compound 3 30 μg/kg, Compound 11 0.1 mg/kg, Compound 4 0.3 mg/kg; for Peak allodynia reversal (dose): intraperitoneal injection, dose (3-300 μg/kg); for allodynia reversal: osmotic minipump 0.1 mg/kg/hour for five days; for persistence of analgesic effects after treatment: subcutaneous osmotic minipump 0.1 mg/kg/hour, seven days; for maintenance of the analgesic effect after minipump removal: osmotic minipump for five days, four week test period
Description: The Chung rat nerve ligation model is a well accepted model of peripheral neuropathic pain. In the Chung model, partial ligation of left spinal nerves L-5 and L-6 produces a long-lasting hypersensitivity to light touch on the affected left foot. The hypersensitivity is similar to pain experienced by humans with the neuropathic condition of causalgia (Kim and Chung, Pain 50:355-363 (1992)).
Chung rat surgeries of about 20 minutes duration were performed essentially as follows. Male Sprague-Dawley rats weighing 100 to 120 grams were anesthetized with isofluorane. After shaving and preparing the surgical site with betadine, an incision was made from thoracic vertebra XIII down toward the sacrum, and muscle separated from spinal vertebra (left side) at the L4-S2 levels. The L6 vertebra were located, and the transverse process carefully removed with a small rongeur to visually identify the L4-L6 spinal nerves. L5 and L6 spinal nerves were isolated and tightly ligated with 6-0 silk thread; the wound was sutured after complete hemostasis was confirmed. A small amount of antibiotic ointment was applied to the incised area before transferring the animals to a plastic recovery cage under a regulated heat-temperature lamp. Animals were not treated with any topical or local anesthetics post-operatively.
Assessment of pain in Chung model rats was performed by applying a light tactile stimulus (Von Frey hair) to the affected surgical paw as follows. A 50% pain threshold was established by applying the Von Frey hair in an up-and-down manner to the plantar surface of the surgical paw with just enough force to bend them. A positive response was recorded if the paw was withdrawn sharply. The 50% paw withdrawal threshold was determined using the method of Dixon et al., Ann. Rev. Pharmacol. Toxicol. 20:441-462 (1980). The post-drug threshold was compared to the pre-drug threshold, and the precent reversal of tactile sensitivity calculated based on a normal threshold of 15.1 grams. The results were expressed as % allodynia reversal, reflecting the percentage reversal of pain threshold relative to a normal rat (100%).
Chung surgeries were performed, and pain assessed as described above. Drugs administered via osmotic minipump were delivered as follows. ALZET (Cupertino, Calif.) minipumps (Model #1007D) were implanted subcutaneously on the rats' back between the shoulder blades. Pumps were filled with test solution prior to surgery, which was performed with aseptic procedures and sterilized surgical instruments. After anesthetization with isoflorane and midline incision between the shoulder blades through the muscle, a subcutaneous pocket was exposed. The minipump was inserted into the exposed pocket, before stapling the wounds closed and allowing animals to recover under a warming light.
ALZET osmotic minipumps (model 1007D) hold a total volume of 100 μl and delivered drug at the set rat of 0.5 μl per hour the indicated time period. Drugs were administered at the indicated rate, typically 100 μg/hr/kg, dissolved in 50% DMSO, with the concentration of drug in the pump varied depending on animal weight. […]

| Compound | analgesic effect in α-2B knockout mice [1] | EC50 [2] [nM] | allodynia reversal, single oral dose [3] | Peak allodynia reversal (dose) [3] | allodynia reversal [3] | analgesia, agonist given alone ([3]; peripheral (intraperitoneal) administration, Chung rats, Compound 2 100 μg/kg, clonidine 100 μg/kg, Compound 3 1 to 1000 μg/kg) | time by which the analgesic effect was gone ([3]; single oral dose) | time to analgesic effect ([3]; single oral dose) | persistence of analgesic effects after treatment [3] | maintenance of the analgesic effect after minipump removal [3] | oral dose sufficient for an analgesic effect ([3]; single oral dose) [mg/kg] | allodynia reversal and duration at 1 mg/kg oral ([3]; single oral dose 1 mg/kg, compared with 0.3 mg/kg) |
| --- | --- | --- | --- | --- | --- | --- | --- | --- | --- | --- | --- | --- |
| O=C1c2ccccc2CCC1Cc1c[nH]c(=S)[nH]1 (racemic) [Compound 3] | not analgesic | > 2000 | 70-100% | 81% +/− 10% | about 80% | significant analgesia without producing sedation | ≤ 2 h | less than 20 minutes | continued for over a month after treatment was concluded | – | – | – |
| O=c1[nH]cc(CC2CCc3cc(F)ccc32)[nH]1 (stereo not shown) [Compound 4] | – | – | 60-80% | 80% +/− 6.5% | about 80% | – | essentially no pain relief was observed after four hours | – | continued for over a month after treatment was concluded | maintained at essentially the same level over the entire four week test period | 0.03 | the allodynia was reversed to a greater extent, and the pain relief was of longer duration |
| S=c1[nH]cc(CC2CC=CC2)[nH]1 [Compound 11] | – | 1710 | 60-90% | – | about 80% | – | ≤ 2 h | – | – | maintained at essentially the same level over the entire four week test period | – | – |
